One assay deals with Syk kinase (Homo sapiens, UniProt P43405). Briefly: SYK Enzymatic Assay (Z-LYTE Tyr 2 peptide). The format is biochemical. Particulars: 8 concentrations 1 μM down to 0.0003 μM. The procedure:
Syk kinase assay are performed in vitro using Kit-Tyr 2 Peptide (Invitrogen, Cat. No. PV3191) and in a 384-well assay plate. […] The 384-well assay plate (Corning, Cat. No. 3575) is mixed and incubated at room temperature for 1 hour. 10 μL of the Development Solution (prepared by diluting Development Reagent A (Cat. No. PV3297) to 1/32 with Development Buffer (Cat. No. PV3127)) is then added to each well, mixed and incubated at room temperature for another 1 hour. The reactions are then stopped by adding 10 μL of the Stop Reagent (Invitrogen, Cat. No. PV3094), and the plate is read with Wallac 1420 VICTOR^3 Multilabel Counter (PerkinElmer™) at 445 nm and 520 nm fluorescence. All compounds are tested at 8 concentrations (1 μM down to 0.0003 μM) using a 1:3 serial dilution scheme.

Another assay relates to RBL-2H3 cells. The experiment in a line: IgE-induced Beta-hexosaminidase secretion in RBL-2H3 cells. The format is cell-based. Particulars: DNP-BSA stimulation. The procedure:
For the determination of IgE-induced Beta-hexosaminidase secretion, RBL-2H3 cells (SIBS) are seeded in 96 well plates at 4×10^4 cells per well and incubated in MEM media with 15% FBS and Glutamine ([…]) for 4 hours and sensitized with 0.5 ug/ml of SPE-7 overnight. Cells are washed 3 times with Tyrode's buffer and incubated in the presence or absence of various concentrations of the testing compound for 20 min at 37° C., 5% CO2. Cells are stimulated by adding 10 uL of DNP-BSA solution (150 ng/mL) to each well and incubating for 45 minutes at 37° C., 5% CO2. Then, 45 μL of the supernatant is taken and incubated with 100 μL of 1 mM 4-Nitrophenyl N-acetyl-β-D-glucosaminide (Sigma, Cat. No. N9376), which is diluted in 0.05 M citrate buffer (pH 4.5), for 1.5 hr at 37° C. The reactions are quenched by adding 185 μL of 0.05 M sodium carbonate buffer (pH 10.0). Plates are read at 405 nm on Multiskan (MK 3).

[1] abbreviates: Rattus norvegicus, RBL-2H3, IgE-induced Beta-hexosaminidase secretion.
The mark [2] stands for this setting: IgE-induced Beta-hexosaminidase secretion.

Regarding `COC1CCN(c2ccc(-c3cc4nccnc4c(OC[C@@H]4CN(C(C)=O)CCO4)n3)cc2)CC1` [Compound 48], the IC50 against Syk kinase came out at 87 nM; in the assay on RBL-2H3 cells (setting [1]) it was 136 nM.
With `CC(=O)N1CCO[C@H](COc2nc(-c3ccc(N4CCN(CCO)CC4)cc3)cc3nccnc23)C1` [Compound 49], the IC50 was determined as 87 nM on Syk kinase and 315 nM in the assay on RBL-2H3 cells (setting [1]).
The matching figures for `CNc1ccc(-c2cc3nccnc3c(OC[C@@H]3CN(C(=O)[C@H]4CCOC4)CCO3)n2)cc1` [Compound 50]: 64 nM and 108 nM.
The matching figures for `CNc1ccc(-c2cc3nccnc3c(OC[C@@H]3CN(C(=O)[C@H]4CCCO4)CCO3)n2)cc1` [Compound 51]: 94 nM and 159 nM.
Regarding `CNc1ccc(-c2cc3nccnc3c(OC[C@@H]3CN(S(C)(=O)=O)CCO3)n2)cc1F` [Compound 52], the values for the IC50 against Syk kinase and in the assay on RBL-2H3 cells (setting [1]) were 42 nM and 47 nM, respectively.
For the molecule `CN(C)c1ccc(-c2cc3nccnc3c(OC[C@@H]3CN(S(C)(=O)=O)CCO3)n2)cc1F` [Compound 53], the concentration for half-maximal inhibition (IC50) against Syk kinase amounted to 32 nM; in the assay with RBL-2H3 cells (setting [1]), 37 nM.
Regarding `CC(=O)N1CCC(c2ccc(-c3cc4nccnc4c(OC[C@@H]4CN(C(C)=O)CCO4)n3)cc2)CC1` [Compound 54], the IC50 worked out at 73 nM against Syk kinase and 257 nM in the assay with RBL-2H3 cells (setting [1]).
For `CNS(=O)(=O)N1CCO[C@H](COc2nc(-c3ccc(N4CCOCC4)cc3)cc3nccnc23)C1` [Compound 55], the IC50 worked out at 65 nM on Syk kinase and 144 nM in the assay with RBL-2H3 cells (setting [1]).
On to `CS(=O)(=O)N1CCC(c2ccc(-c3cc4nccnc4c(OC[C@@H]4CN(S(C)(=O)=O)CCO4)n3)cc2)CC1` [Compound 57, (S)-4-(methylsulfonyl)-2-((7-(4-(1-(methylsulfonyl)piperidin-4-yl)phenyl)pyrido[4,3-b]pyrazin-5-yloxy)methyl)morpholine], for which the IC50 is 14 nM against Syk kinase and 82 nM in the assay with RBL-2H3 cells (setting [1]).
For the molecule `CS(=O)(=O)N1CCO[C@H](COc2nc(-c3ccc(C4CCN(CCO)CC4)cc3)cc3nccnc23)C1` [Compound 58, (S)-2-(4-(4-(5-((4-(methylsulfonyl)morpholin-2-yl)methoxy)pyrido[3,4-b]pyrazin-7-yl)phenyl)piperidin-1-yl)ethanol], the IC50 on Syk kinase worked out at 31 nM; in the assay on RBL-2H3 cells (setting [1]) it was 990 nM.
As to `COCCN1CCC(c2ccc(-c3cc4nccnc4c(OC[C@@H]4CN(S(C)(=O)=O)CCO4)n3)cc2)CC1` [Compound 59], the IC50 came out at 30 nM against Syk kinase and 117 nM in the assay with RBL-2H3 cells (setting [1]).
Consider `O=C(C(F)F)N1CCO[C@H](COc2nc(-c3ccc(N4CCOCC4)cc3)cc3nccnc23)C1` [Compound 61], for which the IC50 was 27 nM on Syk kinase and 29 nM in the assay with RBL-2H3 cells (setting [1]).
Turning to `NS(=O)(=O)N1CCO[C@H](COc2nc(-c3ccc(N4CCOCC4)cc3)cc3nccnc23)C1` [Compound 62], the IC50 amounted to 24 nM against Syk kinase and 97 nM in the assay with RBL-2H3 cells (setting [1]).
The matching figures for `NC(=O)N1CCO[C@H](COc2nc(-c3ccc(N4CCOCC4)cc3)cc3nccnc23)C1` [Compound 63]: 37 nM and 342 nM.
In the case of `CN1CCN(c2ccc(-c3cc4nccnc4c(OC[C@@H]4CN(S(N)(=O)=O)CCO4)n3)cc2)CC1` [Compound 64], the IC50 against Syk kinase is 20 nM; in the assay with RBL-2H3 cells (setting [1]), 487 nM.
For `CN(C)CCS(=O)(=O)N1CCO[C@H](COc2nc(-c3ccc(N4CCOCC4)cc3)cc3nccnc23)C1` [Compound 65] the same measures were 53 nM and 181 nM.
For `COCCS(=O)(=O)N1CCO[C@H](COc2nc(-c3ccc(N4CCOCC4)cc3)cc3nccnc23)C1` [Compound 66], the IC50 on Syk kinase was 58 nM; in the assay with RBL-2H3 cells (setting [1]) it was 230 nM.
As for `CC(=O)N1CCO[C@H](COc2nc(-c3ccc(N(C)C)cc3)cc3nccnc23)C1` [Compound 67], the half-maximal inhibitory concentration (IC50) against Syk kinase was 52 nM; with RBL-2H3 cells (setting [1]), 89 nM.
For `CC(C)C(=O)N1CCO[C@H](COc2nc(-c3ccc(N(C)C)cc3)cc3nccnc23)C1` [Compound 68], the IC50 worked out at 63 nM on Syk kinase and 110 nM with RBL-2H3 cells (setting [1]).
Consider `CN(C)c1ccc(-c2cc3nccnc3c(OC[C@@H]3CN(C(=O)C4CC4)CCO3)n2)cc1` [Compound 69], for which the results for the IC50 against Syk kinase and in the assay on RBL-2H3 cells (setting [1]) were 39 nM and 62 nM, respectively.
Take `CN(C)c1ccc(-c2cc3nccnc3c(OC[C@@H]3CN(C(=O)CC4CC4)CCO3)n2)cc1` [Compound 70]: the values for the 50% inhibitory concentration (IC50) at Syk kinase and in the assay on RBL-2H3 cells (setting [1]) were 99 nM and 213 nM, respectively.
In the case of `CN(C)c1ccc(-c2cc3nccnc3c(OC[C@@H]3CN(C(=O)C4CC(F)(F)C4)CCO3)n2)cc1` [Compound 71], the values for the IC50 at Syk kinase and in the assay on RBL-2H3 cells (setting [1]) were 127 nM and 335 nM, respectively.
Turning to `CN(C)c1ccc(-c2cc3nccnc3c(OC[C@@H]3CN(C(=O)[C@@H]4CCOC4)CCO3)n2)cc1` [Compound 72], the figures for the IC50 against Syk kinase and in the assay on RBL-2H3 cells (setting [1]) were 109 nM and 188 nM, respectively.
With `CN(C)c1ccc(-c2cc3nccnc3c(OC[C@@H]3CN(C(=O)C4CCOCC4)CCO3)n2)cc1` [Compound 73], the IC50 stood at 204 nM against Syk kinase and 142 nM in the assay with RBL-2H3 cells (setting [1]).
The matching figures for `CN(C)c1ccc(-c2cc3nccnc3c(OC[C@@H]3CN(C(=O)[C@H]4CC[C@H](O)CC4)CCO3)n2)cc1` [Compound 74]: 127 nM and 186 nM.
The matching figures for `CN(C)c1ccc(-c2cc3nccnc3c(OC[C@@H]3CN(C(=O)[C@H]4CC[C@@H](O)CC4)CCO3)n2)cc1` [Compound 75]: 95 nM and 131 nM.
On to `CN(C)c1ccc(-c2cc3nccnc3c(OC[C@@H]3CN(C(=O)CC#N)CCO3)n2)cc1` [Compound 76], for which the IC50 at Syk kinase turned out to be 40 nM; with RBL-2H3 cells (setting [1]) it was 88 nM.
Regarding `CN(C)c1ccc(-c2cc3nccnc3c(OC[C@@H]3CN(C(=O)CCC#N)CCO3)n2)cc1` [Compound 77], the IC50 against Syk kinase turned out to be 85 nM; with RBL-2H3 cells (setting [1]), 202 nM.
`CN(C)c1ccc(-c2cc3nccnc3c(OC[C@@H]3CN(C(=O)c4cccnc4)CCO3)n2)cc1` [Compound 78]: the IC50 against Syk kinase worked out at 61 nM; in the assay on RBL-2H3 cells (setting [1]) it was 74 nM.
As to `O=S(=O)(C1CC1)N1CCO[C@H](COc2nc(-c3ccc(N4CCOCC4)cc3)cc3nccnc23)C1` [Compound 83], the IC50 at Syk kinase was found to be 74 nM; in the assay with RBL-2H3 cells (setting [1]), 92 nM.
Consider `CN(C)c1ccc(-c2cc3nccnc3c(OC[C@@H]3CN(C(=O)Cc4c[nH]cn4)CCO3)n2)cc1` [Compound 84], for which the IC50 at Syk kinase was 81 nM; with RBL-2H3 cells (setting [1]) it was 316 nM.
Consider `CN(C)c1ccc(-c2cc3nccnc3c(OC[C@@H]3CN(C(=O)c4ncc[nH]4)CCO3)n2)cc1` [Compound 86], for which the IC50 against Syk kinase was determined as 110 nM; in the assay with RBL-2H3 cells (setting [1]), 616 nM.
In the case of `CN(C)c1ccc(-c2cc3nccnc3c(OC[C@@H]3CN(C(=O)c4cnn(C)c4)CCO3)n2)cc1` [Compound 87], the IC50 against Syk kinase was found to be 60 nM; in the assay on RBL-2H3 cells (setting [1]), 200 nM.
Turning to `CCS(=O)(=O)N1CCO[C@H](COc2nc(-c3ccc(N(C)C)cc3)cc3nccnc23)C1` [Compound 88], the IC50 was 32 nM on Syk kinase and 98 nM in the assay with RBL-2H3 cells (setting [1]).
Turning to `CC(C)S(=O)(=O)N1CCO[C@H](COc2nc(-c3ccc(N(C)C)cc3)cc3nccnc23)C1` [Compound 89], the results for the IC50 against Syk kinase and with RBL-2H3 cells (setting [1]) were 96 nM and 207 nM, respectively.
As to `CN(C)c1ccc(-c2cc3nccnc3c(OC[C@@H]3CN(S(=O)(=O)C4CC4)CCO3)n2)cc1` [Compound 90], the IC50 against Syk kinase was found to be 46 nM; in the assay on RBL-2H3 cells (setting [1]), 61 nM.
As to `CN(C)c1ccc(-c2cc3nccnc3c(OC[C@@H]3CN(S(=O)(=O)c4cccnc4)CCO3)n2)cc1` [Compound 92], the results for the IC50 on Syk kinase and in the assay with RBL-2H3 cells (setting [1]) were 76 nM and 72 nM, respectively.
Take `CN(C)c1ccc(-c2cc3nccnc3c(OC[C@@H]3CN(S(C)(=O)=O)CCO3)n2)cc1` [Compound 94]: the IC50 at Syk kinase was 15 nM; in the assay with RBL-2H3 cells (setting [2]), 40 nM; in the assay with RBL-2H3 cells (setting [1]) it was 22 nM.
For the molecule `CN(C)c1ccc(-c2cc3nccnc3c(OC[C@@H]3CN(C(=O)[C@H]4CCOC4)CCO3)n2)cc1` [Compound 95], the half-inhibitory concentration (IC50) against Syk kinase is 31 nM; in the assay with RBL-2H3 cells (setting [2]) it was 71 nM; with RBL-2H3 cells (setting [1]), 49 nM.
Turning to `CN(C)c1ccc(-c2cc3nccnc3c(OC[C@@H]3CN(C(=O)C4CCCC4)CCO3)n2)cc1` [Compound 98], the results for the IC50 against Syk kinase and in the assay on RBL-2H3 cells (setting [1]) were 55 nM and 230 nM, respectively.
Consider `CNC(=O)CS(=O)(=O)N1CCO[C@H](COc2nc(-c3ccc(N(C)C)cc3)cc3nccnc23)C1` [Compound 99], for which the IC50 is 23 nM at Syk kinase and 106 nM in the assay with RBL-2H3 cells (setting [1]).
As for `CN(C)c1ccc(-c2cc3nccnc3c(OC[C@@H]3CN(C(=O)C(F)F)CCO3)n2)cc1` [Compound 100], the results for the IC50 against Syk kinase and in the assay with RBL-2H3 cells (setting [1]) were 31 nM and 68 nM, respectively.

In general, IC50 refers to the concentration at which inhibition is half-maximal. Read a low IC50 as greater potency in that assay.

(Values after patent US20170152258A9, “Substituted Pyridopyrazines as Syk Inhibitors” (HUTCHISON MEDIPHARMA LIMITED, priority 2012, published 2017).)
